Here are results for 28 compounds from patent US8741906B2 (priority 2011, dated 2014).

The target of experiment [1] is T1, human CB1 receptors (Homo sapiens, UniProt P21554).
T1 construct: expressed in transfected cells; host or cells: CHO cells
In words: functional cAMP assay, human CB1. Type of experiment: cell-based. Put shortly: (§1)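 Cells are seeded 17-24 h ahead, then preincubated in Krebs Ringer bicarbonate buffer with 1 mM IBMX at 30 °C. Compounds act for 30 min at 30 °C, after which lysis and cAMP detection reagents are added for 2 h at room temperature. Time-resolved FRET gives cAMP content, and EC50 values are fitted from it.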

Experiment [2] has as its target T2, human CB2 receptors (Homo sapiens, UniProt P34972).
T2 construct: expressed in transfected cells; host or cells: CHO cells
In words: functional cAMP assay, human CB2. Type of experiment: cell-based. The method, boiled down: as §1

Where [3] appears, read: CHO cells expressing human CB1, cAMP, read-out: human CB1 EC50.
The mark [4] stands for this setting: CHO cells expressing human CB2, cAMP, read-out: human CB2 EC50.

Where two headings read alike, the source gives them in different places.

T2 sequence (P34972 whole entry): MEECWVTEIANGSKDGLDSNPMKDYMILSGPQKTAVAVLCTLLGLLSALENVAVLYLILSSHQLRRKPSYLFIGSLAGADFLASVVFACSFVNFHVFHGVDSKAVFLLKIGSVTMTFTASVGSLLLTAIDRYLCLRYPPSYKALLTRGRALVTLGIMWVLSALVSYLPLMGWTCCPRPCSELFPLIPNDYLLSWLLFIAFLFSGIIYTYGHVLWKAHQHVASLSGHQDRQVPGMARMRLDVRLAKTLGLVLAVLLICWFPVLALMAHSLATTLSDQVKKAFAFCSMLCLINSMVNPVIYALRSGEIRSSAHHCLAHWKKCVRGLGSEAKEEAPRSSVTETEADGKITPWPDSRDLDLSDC
T1 sequence (P21554 whole entry): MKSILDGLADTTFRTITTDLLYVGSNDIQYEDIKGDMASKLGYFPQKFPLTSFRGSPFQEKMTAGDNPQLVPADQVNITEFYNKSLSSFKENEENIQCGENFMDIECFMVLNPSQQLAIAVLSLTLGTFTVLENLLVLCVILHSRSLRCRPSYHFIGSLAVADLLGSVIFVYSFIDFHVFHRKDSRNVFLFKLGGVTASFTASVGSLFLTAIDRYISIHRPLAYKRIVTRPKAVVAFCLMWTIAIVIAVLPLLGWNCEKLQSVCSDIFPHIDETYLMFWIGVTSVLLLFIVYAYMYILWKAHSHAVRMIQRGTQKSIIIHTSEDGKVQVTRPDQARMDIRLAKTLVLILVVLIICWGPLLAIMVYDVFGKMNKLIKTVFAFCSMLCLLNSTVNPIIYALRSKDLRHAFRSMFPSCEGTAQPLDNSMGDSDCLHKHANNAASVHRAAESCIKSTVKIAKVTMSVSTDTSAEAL

On to `CC(C)(C)c1nc(N2CCCOCC2)c2nnn(Cc3ccccc3Cl)c2n1` [Example 22, 5-tert-Butyl-3-(2-chloro-benzyl)-7-[1,4]oxazepan-4-yl-3H-[1,2,3]triazolo[4,5-d]pyrimidine], for which the EC50 in experiment [1] (setting [3]) was 1500 nM; in experiment [2] (setting [4]), 2.4 nM.
Turning to `CC(C)(C)c1nc(N2CC[C@@](C)(O)C2)c2nnn(Cc3ccccc3C(F)(F)F)c2n1` [Example 222-b, (R)-1-(5-tert-butyl-3-(2-(trifluoromethyl)benzyl)-3H-[1,2,3]triazolo[4,5-d]pyrimidin-7-yl)-3-methylpyrrolidin-3-ol], the EC50 in experiment [1] (setting [3]) is above 10000 nM; in experiment [2] (setting [4]) it was 5.2 nM.
For `Cc1nnc(Cn2nnc3c(N4CC[C@@](C)(O)C4)nc(C(C)(C)C)nc32)o1` [Example 225-b, (R)-1-(5-tert-butyl-3-((5-methyl-1,3,4-oxadiazol-2-yl)methyl)-3H-[1,2,3]triazolo[4,5-d]pyrimidin-7-yl)-3-methylpyrrolidin-3-ol], in that order: above 10000 nM and 175 nM.
For `CC(C)(C)c1nc(N2CC[C@H](O)C2)c2nnn(Cc3nnnn3C3CC3)c2n1` [Example 160, (S)-1-[5-tert-Butyl-3-(1-cyclopropyl-1H-tetrazol-5-ylmethyl)-3H-[1,2,3]triazolo[4,5-d]pyrimidin-7-yl]-pyrrolidin-3-ol], in that order: above 10000 nM and 0.7 nM.
The matching figures for `CC(C)(C)c1nc(N2CC[C@@H](F)C2)c2nnn(Cc3ccccc3Cl)c2n1` [Example 42, 5-tert-Butyl-3-(2-chloro-benzyl)-7-((R)-3-fluoro-pyrrolidin-1-yl)-3H-[1,2,3]triazolo[4,5-d]pyrimidine]: 991 nM and 0.3 nM.
Turning to `CC(C)(C)c1nc(N2CC(F)(F)C2)c2nnn(Cc3ccccc3Cl)c2n1` [Example 12, 5-tert-Butyl-3-(2-chloro-benzyl)-7-(3,3-difluoro-azetidin-1-yl)-3H-[1,2,3]triazolo[4,5-d]pyrimidine], the EC50 came to 1110 nM in experiment [1] (setting [3]) and 1.6 nM in experiment [2] (setting [4]).
Regarding `CC(C)(C)c1nc(N2CCC(F)(F)C2)c2nnn(Cc3c(Cl)ccc(F)c3Cl)c2n1` [Example 96, 5-tert-Butyl-3-(2,6-dichloro-3-fluoro-benzyl)-7-(3,3-difluoro-pyrrolidin-1-yl)-3H-[1,2,3]triazolo[4,5-c]pyrimidine], the EC50 came out at 167 nM in experiment [1] (setting [3]) and 0.1 nM in experiment [2] (setting [4]).
With `Cn1ncnc1Cn1nnc2c(N3CC[C@H](O)C3)nc(C(C)(C)C)nc21` [Example 152, (S)-1-[5-tert-Butyl-3-(2-methyl-2H-[1,2,4]triazol-3-ylmethyl)-3H-[1,2,3]triazolo[4,5-d]pyrimidin-7-yl]-pyrrolidin-3-ol], the EC50 in experiment [1] (setting [3]) is above 10000 nM; in experiment [2] (setting [4]), 10.5 nM.
In the case of `CC(C)(C)c1nc(N2CC[C@H](O)C2)c2nnn(Cc3nc(Cl)ccc3Cl)c2n1` [Example 139, (S)-1-[5-tert-Butyl-3-(3,6-dichloro-pyridin-2-ylmethyl)-3H-[1,2,3]triazolo[4,5-d]pyrimidin-7-yl]-pyrrolidin-3-ol], the EC50 in experiment [1] (setting [3]) is above 10000 nM; in experiment [2] (setting [4]) it was 0.3 nM.
The matching figures for `Cn1nncc1Cn1nnc2c(N3CC(F)(F)C(F)(F)C3)nc(C(C)(C)C)nc21` [Example 178, 5-tert-Butyl-3-(3-methyl-3H-[1,2,3]triazol-4-ylmethyl)-7-(3,3,4,4-tetrafluoro-pyrrolidin-1-yl)-3H-[1,2,3]triazolo[4,5-d]pyrimidine]: 1890 nM and 0.9 nM.
For `Cc1c(Cn2nnc3c(N4CCC(F)(F)C4)nc(C(C)(C)C)nc32)ccc[n+]1[O-]` [Example 147, 5-tert-Butyl-7-(3,3-difluoro-pyrrolidin-1-yl)-3-(2-methyl-1-oxy-pyridin-3-ylmethyl)-3H-[1,2,3]triazolo[4,5-d]pyrimidine], in that order: 209 nM and 0.3 nM.
On to `CC1(O)CCN(c2nc(C(C)(C)C)nc3c2nnn3Cc2ccccc2Cl)C1` (centres unmarked) [Example 54, 1-[5-tert-Butyl-3-(2-chloro-benzyl)-3H-[1,2,3]triazolo[4,5-d]pyrimidin-7-yl]-3-methyl-pyrrolidin-3-ol], for which the EC50 in experiment [1] (setting [3]) is above 10000 nM; in experiment [2] (setting [4]), 2.8 nM.
On to `Cc1noc(Cn2nnc3c(N4CC[C@H](O)C4)nc(C(C)(C)C)nc32)n1` [Example 137, (S)-1-[5-tert-Butyl-3-(3-methyl-[1,2,4]oxadiazol-5-ylmethyl)-3H-[1,2,3]triazolo[4,5-d]pyrimidin-7-yl]-pyrrolidin-3-ol], for which the 50% effective concentration (EC50) was above 10000 nM in experiment [1] (setting [3]) and 18.2 nM in experiment [2] (setting [4]).
In the case of `CC(C)(C)c1nc(N2CCC[C@H]2CN)c2nnn(Cc3ccccc3Cl)c2n1` [Example 199, C-{(S)-1-[5-tert-Butyl-3-(2-chloro-benzyl)-3H-[1,2,3]triazolo[4,5-d]pyrimidin-7-yl]-pyrrolidin-2-yl}-methylamine], the EC50 was above 10000 nM in experiment [1] and 183 nM in experiment [2] (setting [4]).
For `Cc1nonc1Cn1nnc2c(N3CC[C@H](O)[C@@H]3CO)nc(C(C)(C)C)nc21` [Example 164, (2S,3S)-1-[5-tert-Butyl-3-(4-methyl-furazan-3-ylmethyl)-3H-[1,2,3]triazolo[4,5-d]pyrimidin-7-yl]-2-hydroxymethyl-pyrrolidin-3-ol], the EC50 in experiment [1] (setting [3]) was above 10000 nM; in experiment [2] (setting [4]), 0.8 nM.
`Cn1nnnc1Cn1nnc2c(N3CC[C@@H](O)C3)nc(C(C)(C)C)nc21` [Example 219, (R)-1-(5-tert-butyl-3-((1-methyl-1H-tetrazol-5-yl)methyl)-3H-[1,2,3]triazolo[4,5-d]pyrimidin-7-yl)pyrrolidin-3-ol]: the EC50 in experiment [1] is above 10000 nM; in experiment [2], 32.9 nM.
As to `CC(C)(C)c1nc(N2CCC(F)(F)C2)c2nnn(CC(=O)c3ccncc3)c2n1` [Example 118, 2-[5-tert-Butyl-7-(3,3-difluoro-pyrrolidin-1-yl)-[1,2,3]triazolo[4,5-d]pyrimidin-3-yl]-1-pyridin-4-yl-ethanone], the values for the EC50 in experiment [1] (setting [3]) and in experiment [2] (setting [4]) were above 10000 nM and 0.9 nM, respectively.
For `Cn1nnnc1Cn1nnc2c(N3CC[C@](C)(O)C3)nc(C(C)(C)C)nc21` [Example 227-a, (S)-1-(5-tert-butyl-3-((1-methyl-1H-tetrazol-5-yl)methyl)-3H-[1,2,3]triazolo[4,5-d]pyrimidin-7-yl)-3-methylpyrrolidin-3-ol], in that order: above 10000 nM and 18.7 nM.
The matching figures for `Cc1nc(Cn2nnc3c(N4CCC(F)(F)C4)nc(C(C)(C)C)nc32)n(C)n1` [Example 163, 5-tert-Butyl-7-(3,3-difluoro-pyrrolidin-1-yl)-3-(2,5-dimethyl-2H-[1,2,4]triazol-3-ylmethyl)-3H-[1,2,3]triazolo[4,5-d]pyrimidine]: above 10000 nM and 5.5 nM.
The matching figures for `CC(C)(C)c1nc(N2CCC(F)(F)C2)c2nnn(Cc3nccc(Cl)c3Cl)c2n1` [Example 124, 5-tert-Butyl-3-(3,4-dichloro-pyridin-2-ylmethyl)-7-(3,3-difluoro-pyrrolidin-1-yl)-3H-[1,2,3]triazolo[4,5-d]pyrimidine]: 276 nM and 0.3 nM.
Regarding `CC(C)(C)c1nc(N2CCC[C@@H]2CO)c2nnn(Cc3ccccc3Cl)c2n1` [Example 37, {(R)-1-[5-tert-Butyl-3-(2-chloro-benzyl)-3H-[1,2,3]triazolo[4,5-d]pyrimidin-7-yl]-pyrrolidin-2-yl}-methanol], the EC50 in experiment [1] (setting [3]) was 492 nM; in experiment [2] (setting [4]), 0.3 nM.
As to `CC(C)(C)c1nc(N2CCC[C@H]2CO)c2nnn(Cc3ccccc3Cl)c2n1` [Example 38, {(S)-1-[5-tert-Butyl-3-(2-chloro-benzyl)-3H-[1,2,3]triazolo[4,5-d]pyrimidin-7-yl]-pyrrolidin-2-yl}-methanol], the EC50 was 361 nM in experiment [1] (setting [3]) and 18.2 nM in experiment [2] (setting [4]).
The matching figures for `CC(C)(C)c1nc(N2CC[C@H](O)C2)c2nnn(Cc3ccccc3S(C)(=O)=O)c2n1` [Example 143, (S)-1-[5-tert-Butyl-3-(2-methanesulfonyl-benzyl)-3H-[1,2,3]triazolo[4,5-d]pyrimidin-7-yl]-pyrrolidin-3-ol]: above 10000 nM and 0.1 nM.
In the case of `CC(C)(C)c1nc(NC2CCCCC2)c2nnn(Cc3ccccc3Cl)c2n1` [Example 8, [5-tert-Butyl-3-(2-chloro-benzyl)-3H-[1,2,3]triazolo[4,5-d]pyrimidin-7-yl]-cyclohexyl-amine], the results for the EC50 in experiment [1] and in experiment [2] (setting [4]) were above 10000 nM and 647 nM, respectively.
As for `CC(C)(C)c1nc(N2CCC(F)(F)C2)c2nnn(Cc3ccccc3C#N)c2n1` [Example 83, 2-[5-tert-Butyl-7-(3,3-difluoro-pyrrolidin-1-yl)-[1,2,3]triazolo[4,5-d]pyrimidin-3-ylmethyl]-benzonitrile], the EC50 in experiment [1] (setting [3]) stood at 283 nM; in experiment [2] (setting [4]), 0.1 nM.
For `Cn1nnnc1Cn1nnc2c(N3CC[C@H](O)[C@@H]3CO)nc(C(C)(C)C)nc21` [Example 165, (2S,3S)-1-[5-tert-Butyl-3-(1-methyl-1H-tetrazol-5-ylmethyl)-3H-[1,2,3]triazolo[4,5-d]pyrimidin-7-yl]-2-hydroxymethyl-pyrrolidin-3-ol], in that order: above 10000 nM and 53.5 nM.
For `CC(Oc1nc(C(C)(C)C)nc2c1nnn2Cc1ccccc1Cl)C1CC1` (centres unmarked) [Example 211, 5-tert-Butyl-3-(2-chloro-benzyl)-7-(1-cyclopropyl-ethoxy)-3H-[1,2,3]triazolo[4,5-d]pyrimidine], in that order: above 10000 nM and 98.6 nM.
In the case of `CC(C)(C)c1nc(N2CCC(F)(F)C2)c2nnn(Cc3cc(F)ccc3Cl)c2n1` [Example 90, 5-tert-Butyl-3-(2-chloro-5-fluoro-benzyl)-7-(3,3-difluoro-pyrrolidin-1-yl)-3H-[1,2,3]triazolo[4,5-d]pyrimidine], the EC50 in experiment [1] (setting [3]) turned out to be 370 nM; in experiment [2] (setting [4]), 0.5 nM.
